Earlier results as cited in patent US10493089B2, “Solid composition comprising amorphous sofosbuvir” (priority 2014, dated 2019).

Row | Structure (SMILES) | relative humidity at which it deliquesces (amorphous form compared to crystalline forms) | behaviour under stress conditions (40° C., relative humidity 75%)
1 | CC(C)OC(=O)[C@H](C)N[P@](=O)(OC[C@H]1O[C@@H](n2ccc(=O)[nH]c2=O)[C@](C)(F)[C@@H]1O)Oc1ccccc1 [Amorphous sofosbuvir] | above 50% | –
2 | CC(C)OC(=O)[C@H](C)N[P@](=O)(OC[C@H]1O[C@@H](n2ccc(=O)[nH]c2=O)[C@](C)(F)[C@@H]1O)Oc1ccccc1 [sofosbuvir, (S)-isopropyl 2-(((S)-(((2R,3R,4R,5R)-5-(2,4-dioxo-3,4-dihydropyrimidin-1(2H)-yl)-4-fluoro-3-hydroxy-4-methyltetrahydrofuran-2-yl)methoxy)(phenoxy)phosphoryl)amino)propanoate] | – | deliquesces after a few hours
